Measured values taken from patent publication US9834566B2, “Pyrazolopyrimidine macrocycles as inhibitors of human immunodeficiency virus replication” (priority 2014, dated 2017).

Test system: recombinant NL-RLuc virus (NL4-3 with Renilla Luciferase gene)
Experiment: Inhibition of HIV replication (NL-RLuc luciferase reporter virus in MT-2 cells)
Format: cell-based
Details: NL43, 120 h
Source text: Inhibition of HIV Replication:
A recombinant NL-RLuc proviral clone was constructed in which a section of the nef gene from NL4-3 was replaced with the Renilla Luciferase gene. This virus is fully infectious and can undergo multiple cycles of replication in cell culture. In addition, the luciferous reporter provides a simple and easy method for quantitating the extent of virus growth and consequently, the antiviral activity of test compounds. The plasmid pNLRLuc contains the proviral NL-Rluc DNA cloned into pUC18 at the PvuII site. The NL-RLuc virus was prepared by transfection of 293T cells with the plasmid pNLRLuc. Transfections were performed using the LipofectAMINE PLUS kit from Invitrogen (Carlsbad, Calif.) according to the manufacturer and the virus generated was titered in MT-2 cells. For susceptibility analyses, the titrated virus was used to infect MT-2 cells in the presence of compound, and after 5 days of incubation, cells were processed and quantitated for virus growth by the amount of expressed luciferase. Assay media was RPMI 1640 supplemented with 10% heat inactivated fetal bovine serum (FBS), 100 units/ml penicillin G/100 units/ml streptomycin, 10 mM HEPES buffer pH 7.55 and 2 mM L-glutamine. The results from at least 2 experiments were used to calculate the EC50 values. Luciferase was quantitated using the Dual Luciferase kit from Promega (Madison, Wis.). Susceptibility of viruses to compounds was determined by incubation in the presence of serial dilutions of the compound. The 50% effective concentration (EC50) was calculated by using the exponential form of the median effect equation where (Fa)=1/[1+(ED50/drug conc.)^m] (Johnson V A, Byington R T. Infectivity Assay. In Techniques in HIV Research. ed. Aldovini A, Walker B D. 71-76. New York: Stockton Press. 1990).
For `Cc1ccc2cc1OCc1cccc(c1)COc1cc(F)ccc1-c1cccc(c1)-c1cc3nc(C)c([C@H](OC(C)(C)C)C(=O)O)c-2n3n1` [Example 15, (2S)-2-(tert-Butoxy)-2-{26-fluoro-7,13-dimethyl-15,23-dioxa-3,4,6-triazaheptacyclo [28.3.1.1^2,^5.1^10,^14.1^17,^21.0^4,^9.0^24,^29]heptatriaconta-1(34),2,5(37),6,8,10,12,14(36), 17(35),18,20,24(29),25,27,30,32-hexadecaen-8-yl}acetic acid], the EC50 was 301 nM. Compound `Cc1ccc2cc1OCCCCCCOc1cc(F)ccc1-c1cccc(c1)-c1cc3nc(C)c([C@H](OC(C)(C)C)C(=O)O)c-2n3n1` [Example 16, (2S)-2-(tert-Butoxy)-2-{25-fluoro-7,13-dimethyl-15,22-dioxa-3,4,6-triazahexacyclo [27.3.1.1^2,^5.1^10,^14.0^4,^9.0^23,^28]pentatriaconta-1(33),2,5(35),6,8,10,12,14(34), 23(28),24,26,29,31-tridecaen-8-yl}acetic acid] has an EC50 of 780 nM. Work on `Cc1ccc2cc1OCCOCCOc1cc(F)ccc1-c1cccc(c1)-c1cc3nc(C)c([C@H](OC(C)(C)C)C(=O)O)c-2n3n1` [Example 17, (2S)-2-(tert-Butoxy)-2-{24-fluoro-7,13-dimethyl-15,18,21-trioxa-3,4,6-triazahexacyclo [26.3.1.1^2,^5.1^10,^14.0^4,^9.0^22,^27]tetratriaconta-1(32),2,5(34),6,8,10,12,14(33), 22(27),23,25,28,30-tridecaen-8-yl}acetic acid] yielded an EC50 of 289 nM. `Cc1ccc2cc1OCCN(Cc1ccccc1)CCOc1cc(F)ccc1-c1cccc(c1)-c1cc3nc(C)c([C@H](OC(C)(C)C)C(=O)O)c-2n3n1` [Example 18, (2S)-2-(tert-Butoxy)-2-{18-fluoro-4-methyl-21,29,33-trioxa-5,7,8-triazaoctacyclo [28.6.2.1^6,^9.1^10,^14.1^23,^27.0^2,^7.0^15,^20.0^34,^38]hentetraconta-1(36),2,4,6(41),8,10(40),11,13, 15(20),16,18,23,25,27(39),34,37-hexadecaen-3-yl}acetic acid] showed an EC50 of 1140 nM. Compound `C=C1COc2cc(F)ccc2-c2cccc(c2)-c2cc3nc(C)c([C@H](OC(C)(C)C)C(=O)O)c(n3n2)-c2ccc(F)cc2OC1` [Example 19, (2S)-2-(tert-butoxy)-2-{13,23-difluoro-7-methyl-18-methylidene-16,20-dioxa-3,4,6-triazahexacyclo[25.3.1.1^2,5.0^4,9.0^10,15.0^21,26]dotriaconta-1(31),2,5(32),6,8,10,12,14,21(26),22,24,27,29-tridecaen-8-yl}acetic acid] has an EC50 of 3590 nM. Compound `Cc1ccc2c(c1)OCCCCCOc1cc(F)ccc1-c1cccc(c1)-c1cc3nc(C)c([C@H](OC(C)(C)C)C(=O)O)c-2n3n1` [Example 20, (2S)-2-(tert-butoxy)-2-{25-fluoro-7, 13-dimethyl-16, 22-dioxa-3,4,6-triazahexacyclo[27.3.1.1^2,5.0^4,9.0^10,15.0^23,28]tetratriaconta-1(33),2,5(34),6,8,10,12,14, 23(28),24,26,29,31-tridecaen-8-yl}acetic acid] has an EC50 of 2780 nM. Compound `Cc1nc2cc3nn2c(c1[C@H](OC(C)(C)C)C(=O)O)-c1ccc2c(c1)C(CCO2)OCCCCCOc1cc(F)ccc1-c1cccc-3c1` (stereo partly drawn) [Example 21, (2S)-2-(tert-Butoxy)-2-{18-fluoro-4-methyl-21,27,31-trioxa-5,7,8-triazaheptacyclo[26.6.2.1^6,9.1^10,14.0^2,7.0^15,20.0^32,36]octatriaconta-1(34),2,4,6(38),8,10(37),11,13,15(20),16,18,32,35-tridecaen-3-yl}acetic acid] has an EC50 of 695 nM. For `Cc1nc2cc3nn2c(c1[C@H](OC(C)(C)C)C(=O)O)-c1ccc2c(c1)C(CCO2)OCCCCCCOc1cc(F)ccc1-c1cccc-3c1` (stereo partly drawn) [Example 22, (2S)-2-(tert-butoxy)-2-{18-fluoro-4-methyl-21,28,32-trioxa-5,7,8-triazaheptacyclo[27.6.2.1^6,9.1^10,14.0^2,7.0^15,20.0^33,37]nonatriaconta-1(35),2,4,6(39),8,10(38),11,13,15(20),16,18,33,36-tridecaen-3-yl}acetic acid], the EC50 was 1440 nM. With `Cc1nc2cc3nn2c(c1[C@H](OC(C)(C)C)C(=O)O)-c1ccc2c(c1)C(CCO2)OCc1cccc(c1)COc1cc(F)ccc1-c1cccc-3c1` (stereo partly drawn) [Example 23, (2S)-2-(tert-butoxy)-2-{18-fluoro-4-methyl-21, 29, 33-trioxa-5,7,8-triazaoctacyclo[28.6.2.1^6,9.1^10,14.1^23,27.0^2,7.0^15,20.0^34,38]hentetraconta-1(36),2,4,6(41),8,10(40),11,13,15(20),16,18, 23, 25, 27(39),34,37-hexadecaen-3-yl}acetic acid] the EC50 was 123 nM. For `Cc1nc2cc3nn2c(c1[C@H](OC(C)(C)C)C(=O)O)N1CCC(C)(CC1)OCCOCCOc1cc(F)ccc1-c1cccc-3c1` [Example 24, (2S)-2-(tert-Butoxy)-2-{18-fluoro-4,28-dimethyl-21, 24, 27-trioxa-1,5,7,8-tetraazahexacyclo[26.2.2.1^6,9.1^10,14.0^2,7.0^15,20]tetratriaconta-2,4,6(34),8,10(33),11,13,15(20),16,18-decaen-3-yl}acetic acid], the EC50 was 6 nM. In the case of `Cc1nc2cc3nn2c(c1[C@H](OC(C)(C)C)C(=O)O)N1CCC(C)(CC1)OCCCC[C@H](C)Oc1ccc(C(=O)NCCc2ccc(F)cc2)cc1-c1cccc-3c1` [Example 25, (2S)-2-(tert-Butoxy)-2-[(22S)-17-{[2-(4-fluorophenyl)ethyl]carbamoyl}-4,22,28-trimethyl-21,27-dioxa-1,5,7,8-tetraazahexacyclo[26.2.2.1^6,9.1^10,14.0^2,7.0^15,20]tetratriaconta-2,4,6(34),8,10(33),11,13,15(20),16,18-decaen-3-yl]acetic acid], the EC50 is reported as 4 nM. Compound `Cc1nc2cc3nn2c(c1[C@H](OC(C)(C)C)C(=O)O)N1CCC(C)(CC1)OCCCC[C@H](C)Oc1ccc(C(=O)N(C)CCc2ccc(F)cc2)cc1-c1cccc-3c1` [Example 26, (2S)-2-(tert-Butoxy)-2-[(22S)-17-{[2-(4-fluorophenyl)ethyl](methyl)carbamoyl}-4, 22, 28-trimethyl-21, 27-dioxa-1,5,7,8-tetraazahexacyclo[26.2.2.1^6,9.1^10,14.0^2,7.0^15,20]tetratriaconta-2,4,6(34),8,10(33),11,13,15(20),16,18-decaen-3-yl]acetic acid] has an EC50 of 3 nM.

Test system: not given
Experiment: not given
Details: from C=CCOC1(C)CCN(c2c([C@H](OC(C)(C)C)C(=O)OCC)c(C)nc3cc(-c4cccc(-c5cc(C(=O)OC)ccc5O[C@@H](C)CC=C)c4)nn23)CC1; rcm bond; Hoveyda-Grubbs II (with CuI); DCE; 1.52 mM; 80.0 °C; 3.0 h
`CCOC(=O)[C@@H](OC(C)(C)C)c1c(C)nc2cc3nn2c1N1CCC(C)(CC1)OCC=CC[C@H](C)Oc1ccc(C(=O)OC)cc1-c1cccc-3c1` gave a ring closure, yield of all isomers of 83%.

Same assay, conditions: from COC(=O)[C@@H](OC(C)(C)C)c1c(C)nc2cc(-c3cccc(-c4ccc(F)cc4OCc4cccc(CBr)c4)c3)nn2c1-c1ccc2c(c1)C(O)CCO2; ether bond; NaH; THF; 2.77 mM; 25.0 °C; 5.0 h; 2 steps
`Cc1nc2cc3nn2c(c1[C@H](OC(C)(C)C)C(=O)O)-c1ccc2c(c1)C(CCO2)OCc1cccc(c1)COc1cc(F)ccc1-c1cccc-3c1` (stereo partly drawn) [Example 23, (2S)-2-(tert-butoxy)-2-{18-fluoro-4-methyl-21, 29, 33-trioxa-5,7,8-triazaoctacyclo[28.6.2.1^6,9.1^10,14.1^23,27.0^2,7.0^15,20.0^34,38]hentetraconta-1(36),2,4,6(41),8,10(40),11,13,15(20),16,18, 23, 25, 27(39),34,37-hexadecaen-3-yl}acetic acid] showed a ring closure, yield of all isomers of 7.2%.
